From patent publication US8802654B2, “Antiviral compounds” (Adenovir Pharma AB, priority 2009, dated 2014)

Tested on: HAdV-37 virions
Test: Binding assay: inhibition of the binding of 35S-labeled HAdV-37 virions to HCE cells
Assay type: cell-based
Conditions: monovalent sialic acid, stated for comparison with Table 1
Method: HCE (human corneal epithelial) and A549 cells were grown as previously described (Araki-Sasaki, K., Ohasi, K. Y., Sasabe, T., Hayashi, K., Watanabe, H., Tano, Y., Handa, H., 1995. “An SV-40-immortalized human corneal epithelial cell line and its characterization.” Invest. Ophtahlmol. 36, 614-621 and Amberg, N., Edlund, K., Kidd, A. H., Wadell, G., 2000a. Adenovirus type 37 uses sialic acid as a cellular receptor. J. Virol. 74, 42-48.).
HAdV37 (strain 1477) virions were produced as follows: 0.3 mL of HAdV37 inoculation material (prepared from infected A549 cells) was added to A549 cells (175 cm^2 flasks) and incubated for 2 h at 37° C. […] The specific radioactivity of labeled virions was determined to be 4×10^−6 cpm per virion. The identity of HAdV-37 was determined by digesting viral DNA with restriction enzymes and compared to established patterns for HAdV-37 prototype strain (Wadell, G., Sundell, G., de Jong, J. C., 1981. Characterization of candidate adenovirus 37 by SDS-polyacrylamide gel electrophoresis of virion polypeptides and DNA restriction site mapping. J. Med. Virol. 7, 119-125.). […]
After one additional hour, unbound virions were removed by washing, and the cell-associated radioactivity was measured with a Wallac 1409 scintillation counter (Perkin-Elmer). […]

CC(=O)N[C@H]1[C@H]([C@H](O)[C@H](O)CO)OC(O)(C(=O)O)C[C@@H]1O (stereo partly shown) [sialic acid]
IC50: 2 to 5 mM
